US20260042764A1, “COMPOSITIONS AND METHODS FOR INHIBITION OF KRAS” (TheRas, Inc., priority 2022, published 2026)

Columns and labels:
[1] = system: GP2d cells (KRAS G12D); test: Cell-based pERK HTRF assay in GP2d cell (Biological Example 2); settings: GP2d, GP2d (KRAS G12D) cells, pERK HTRF
In short: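 60 min compound, 0.25% DMSO, 9-pt half-log curve from 1 μM or 100 nM; DMEM/10% FBS.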

[2] = target: T1, Avi-KRAS G12V (1-169) GppNHp/RAF1 RBD-3xFLAG (52-151) (Homo sapiens, UniProt P01116, G12V); test: Raf1-KRAS G12V-GppNHP disruption HTRF assay (Biological Example 1); assay type: binding
T1 construct: Avi-KRAS G12V (1-169)
In short: (§1)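 First, protein mix in Tris pH 7.5 buffer with NaCl, MgCl2, BSA, Tween and 10% DMSO is incubated 1 h at room temperature. Next, reagent mix is added and incubated a further 1 h at room temperature. Finally, HTRF is read and activity normalized to DMSO.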

[3] = target: T2, Avi-KRAS G12D (1-169) GppNHp/RAF1 RBD-3xFLAG (52-151) (Homo sapiens, UniProt P01116, G12D); test: Raf1-KRAS G12D-GppNHP disruption HTRF assay (Biological Example 1); assay type: binding
T2 construct: Avi-KRAS G12D (1-169)
In short: as §1

[4] = system: SW620 cells (KRAS G12V); test: Cell-based pERK HTRF assay in SW620 cell (Biological Example 4); settings: Homo sapiens, SW-620, SW620 (KRAS G12V) cells, pERK HTRF
In short: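 This assay measures inhibition of ERK phosphorylation downstream of KRAS G12V in intact SW620 cells. Compounds are applied for 4 h over nine half-log concentrations starting at 1 μM, and pERK is quantified by HTRF.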

[5] = target: T3, Avi-KRAS G12R (1-169) GppNHp/RAF1 RBD-3xFLAG (52-151) (Homo sapiens, UniProt P01116, G12R); test: Raf1-KRAS G12R-GppNHP disruption HTRF assay (Biological Example 1); assay type: binding
T3 construct: Avi-KRAS G12R (1-169)
In short: as §1

[6] = target: T4, Avi-KRAS WT (1-169) GppNHp/RAF1 RBD-3xFLAG (52-151) (Homo sapiens, UniProt P01116); test: Raf1-KRAS WT-GppNHP disruption HTRF assay (Biological Example 1); assay type: binding
T4 construct: Avi-KRAS WT (1-169)
In short: as §1

[7] = KRAS G12V, GppNHp-loaded, Table 11
[8] = KRAS G12D, GppNHp-loaded, Table 11
[9] = KRAS G12R, GppNHp-loaded, Table 11
[10] = KRAS WT, GppNHp-loaded, Table 11
[11] = KRAS G12V, GppNHp-loaded, class symbols
[12] = KRAS G12D, GppNHp-loaded, class symbols
[13] = KRAS G12R, GppNHp-loaded, class symbols
[14] = KRAS WT, GppNHp-loaded, class symbols

T2 sequence (P01116 1-169 isoform P01116-2 G12D): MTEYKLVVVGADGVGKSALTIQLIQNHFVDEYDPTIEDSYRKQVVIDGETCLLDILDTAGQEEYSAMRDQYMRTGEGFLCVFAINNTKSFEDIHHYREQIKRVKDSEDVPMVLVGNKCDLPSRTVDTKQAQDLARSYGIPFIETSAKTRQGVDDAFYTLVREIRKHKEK
T4 sequence (P01116 1-169 isoform P01116-2): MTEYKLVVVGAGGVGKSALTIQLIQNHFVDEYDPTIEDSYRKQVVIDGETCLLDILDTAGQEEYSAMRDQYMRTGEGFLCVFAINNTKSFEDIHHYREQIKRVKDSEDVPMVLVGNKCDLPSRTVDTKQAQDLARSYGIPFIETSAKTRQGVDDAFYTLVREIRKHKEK
T3 sequence (P01116 1-169 isoform P01116-2 G12R): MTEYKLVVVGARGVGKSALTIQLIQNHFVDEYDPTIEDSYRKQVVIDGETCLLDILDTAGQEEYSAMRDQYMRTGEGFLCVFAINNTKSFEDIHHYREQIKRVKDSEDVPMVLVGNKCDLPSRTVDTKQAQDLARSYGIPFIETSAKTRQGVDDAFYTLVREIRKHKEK
T1 sequence (P01116 1-169 isoform P01116-2 G12V): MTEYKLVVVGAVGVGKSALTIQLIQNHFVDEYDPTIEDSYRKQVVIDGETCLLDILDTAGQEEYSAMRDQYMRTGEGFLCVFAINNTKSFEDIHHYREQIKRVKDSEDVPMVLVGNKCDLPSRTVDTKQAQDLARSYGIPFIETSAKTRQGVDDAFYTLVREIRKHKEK

Row | IC50 [1] | IC50 ([2]; KRAS G12V-GppNHp/RAF1 RBD HTRF) | IC50 ([3]; KRAS G12D-GppNHp/RAF1 RBD HTRF) | IC50 [4] | IC50 ([5]; KRAS G12R-GppNHp/RAF1 RBD HTRF) | IC50 ([6]; KRAS WT-GppNHp/RAF1 RBD HTRF) | IC50 [2, 7] | IC50 [3, 8] | IC50 [5, 9] | IC50 [6, 10] | IC50 ([1]; class symbols) | IC50 [2, 11] | IC50 [3, 12] | IC50 ([4]; class symbols) | IC50 [5, 13] | IC50 [6, 14] | Compound
1 | < 100 nM | 100 to 1000 nM | 100 to 1000 nM | < 100 nM | 100 to 1000 nM | 100 to 1000 nM | – | – | – | – | – | – | – | – | – | – | CN(c1nc(OC[C@@]23CCCN2C[C@H](F)C3)nc2c(F)c(-c3ccc(F)c4sc(N)c(C#N)c34)c(C(F)(F)F)cc12)[C@H]1C[C@H](CF)N(C(=O)C2CC2)C1 [Compound 462]
2 | 100 to 1000 nM | – | – | 100 to 1000 nM | – | – | 1000 to 10000 nM | 1000 to 10000 nM | 1000 to 10000 nM | 1000 to 10000 nM | – | – | – | – | – | – | C[C@H]1[C@@H](N(C)c2nc(OC[C@@]34CCCN3C[C@H](F)C4)nc3c(F)c(-c4ccc(F)c5sc(N)c(C#N)c45)c(C(F)(F)F)cc23)CCN1C(=O)CC#N [Compound 252]
3 | < 100 nM | 100 to 1000 nM | 100 to 1000 nM | < 100 nM | 100 to 1000 nM | 100 to 1000 nM | – | – | – | – | – | – | – | – | – | – | N#Cc1c(N)sc2c(F)ccc(-c3c(C(F)(F)F)cc4c(N5CC6OCC5C6O)nc(OC[C@@]56CCCN5C[C@H](F)C6)nc4c3F)c12 (stereo partly drawn) [Compound 508]
4 | – | – | – | – | – | – | – | – | – | – | < 100 nM | 100 to 1000 nM | 100 to 1000 nM | < 100 nM | 100 to 1000 nM | 100 to 1000 nM | CCC(=O)N1C[C@@H](N(CC)c2nc(OC[C@@]34CCCN3C[C@H](F)C4)nc3c(F)c(-c4ccc(F)c5sc(N)c(C#N)c45)c(C(F)(F)F)cc23)C[C@H]1COC (atropisomer, axis not shown) [Compound 649]
5 | < 100 nM | 1000 to 10000 nM | 100 to 1000 nM | 100 to 1000 nM | 1000 to 10000 nM | 1000 to 10000 nM | – | – | – | – | – | – | – | – | – | – | CCN(c1nc(OC[C@@]23CCCN2C[C@H](F)C3)nc2c(F)c(-c3ccc(F)c4sc(N)c(C#N)c34)c(C(F)(F)F)cc12)[C@H]1CC(=O)N(C2CC2)C1 [Compound 496]
6 | < 100 nM | 100 to 1000 nM | 100 to 1000 nM | < 100 nM | 100 to 1000 nM | 100 to 1000 nM | – | – | – | – | – | – | – | – | – | – | N#Cc1nnn2c1CN(c1nc(OC[C@@]34CCCN3C[C@H](F)C4)nc3c(F)c(-c4ccc(F)c5sc(N)c(C#N)c45)c(C(F)(F)F)cc13)CC2 [Compound 486]
7 | < 100 nM | 100 to 1000 nM | 100 to 1000 nM | < 100 nM | 100 to 1000 nM | 100 to 1000 nM | – | – | – | – | – | – | – | – | – | – | C[C@@H]1CC[C@@H](O)CN1c1nc(OC[C@@]23CCCN2C[C@H](F)C3)nc2c(F)c(-c3ccc(F)c4sc(N)c(C#N)c34)c(C(F)(F)F)cc12 [Compound 314]
8 | < 100 nM | 1000 to 10000 nM | 100 to 1000 nM | 100 to 1000 nM | 1000 to 10000 nM | 100 to 1000 nM | – | – | – | – | – | – | – | – | – | – | CN(c1nc(OC[C@@]23CCCN2C[C@H](F)C3)nc2c(F)c(-c3ccc(F)c4sc(N)c(C#N)c34)c(C(F)(F)F)cc12)C1CCS(=O)(=O)CC1 [Compound 330]
9 | – | – | – | – | – | – | – | – | – | – | < 100 nM | < 100 nM | < 100 nM | < 100 nM | < 100 nM | < 100 nM | CCN(c1nc(OC[C@@]23CCCN2C[C@H](F)C3)nc2c(F)c(-c3ccc(F)c4sc(N)c(C#N)c34)c(C(F)(F)F)cc12)[C@H]1CCN(C(=O)c2ccn(C)n2)C1 (atropisomer, axis not shown) [Compound 724]
10 | 100 to 1000 nM | – | – | 100 to 1000 nM | – | – | 1000 to 10000 nM | 1000 to 10000 nM | 1000 to 10000 nM | 1000 to 10000 nM | – | – | – | – | – | – | N#Cc1c(N)sc2c(F)ccc(-c3c(C(F)(F)F)cc4c(N5CC6(CC6)C5)nc(OC[C@@]56CCCN5C[C@H](F)C6)nc4c3F)c12 [Compound 204]
11 | 100 to 1000 nM | 100 to 1000 nM | 100 to 1000 nM | 100 to 1000 nM | 100 to 1000 nM | 100 to 1000 nM | – | – | – | – | – | – | – | – | – | – | N#Cc1c(N)sc2c(F)ccc(-c3c(C(F)(F)F)cc4c(N5CCn6cnnc6C5)nc(OC[C@@]56CCCN5C[C@H](F)C6)nc4c3F)c12 [Compound 294]

Row | Compound | IC50 [1] | IC50 ([2]; KRAS G12V-GppNHp/RAF1 RBD HTRF) | IC50 ([3]; KRAS G12D-GppNHp/RAF1 RBD HTRF) | IC50 [4] | IC50 ([5]; KRAS G12R-GppNHp/RAF1 RBD HTRF) | IC50 ([6]; KRAS WT-GppNHp/RAF1 RBD HTRF) | IC50 [2, 7] | IC50 [3, 8] | IC50 [5, 9] | IC50 [6, 10] | IC50 ([1]; class symbols) | IC50 [2, 11] | IC50 [3, 12] | IC50 ([4]; class symbols) | IC50 [5, 13] | IC50 [6, 14]
12 | CC(=O)N1C2CCC1CN(c1nc(OC[C@@]34CCCN3C[C@H](F)C4)nc3c(F)c(-c4ccc(F)c5sc(N)c(C#N)c45)c(C(F)(F)F)cc13)C2 [Compound 438] | < 100 nM | 1000 to 10000 nM | 100 to 1000 nM | < 100 nM | 100 to 1000 nM | 100 to 1000 nM | – | – | – | – | – | – | – | – | – | –
